Columns and labels:
[1] = tested on: Setaria viridis; assay: Growth-chamber post-emergence assay, low application rates (Example 5); assay type: in vivo
Experimental: (§1) Herbicidal activity of Compound 1 was determined by post-emergence application on 8-day old plants (weeds) of the Amaranthus palmeri and Setaria viridis species that were grown at 16 hours/8 hours day/night cycles at 30° C./25° C., respectively. Leaf stage was typically 4-6 for A. palmeri and 3-4 for S. viridis.
(§2) In each treatment, between 1 to 3 pots (8×12 cm), containing about 6 Amaranthus palmeri or Setaria viridis plants, were sprayed using a VL-SET Paasche Airbrush with a 1 ml-solution containing 0.1-0.375 mg/ml of the tested compound, which is equivalent to about 100-375 g/ha.
(§3) Damage assessment: Herbicidal activity was assessed and scored 3-4 days after application by visual inspection of the plants in comparison to plants treated with the formulation alone (with no active ingredient) as control. Activity score is in the range of 0 to 100, where 0 represents no herbicidal activity like control plants and 100 represents the maximal herbicidal activity (i.e., total death of the plant).

[2] = tested on: Amaranthus palmeri; assay: as above; assay type: in vivo
Experimental: as §1, §2, §3

[3] = tested on: Amaranthus palmeri; assay: Growth-chamber post-emergence herbicidal assay (Example 2); assay type: in vivo
Experimental: Herbicidal activity was determined by post-emergence application on 8-day old plants (weeds) of the Amaranthus palmeri and Setaria viridis species that were grown at 16 hours/8 hours day/night cycles at 30° C./25° C., respectively. Leaf stage was typically 4-6 for A. palmeri and 3-4 for S. viridis.
In each treatment, 2-3 pots, each containing about 5 plants each (for Setaria viridis), and one 9-pack, containing about 9 plants (for Amaranthus palmeri), were sprayed using a VL-SET Paasche Airbrush with 0.3-1.5 ml solution containing 0.125-2 mg/ml of a tested compound, which is equivalent to about 125-2000 g/ha.
as §3
Formulation design: Compounds were tested on A. Palmeri in various formulations, and in varying concentrations for each of the tested formulations, in order to determine optimal conditions for its application and performance. Activity scores were determined as described hereinabove. Solubility scores were determined by visual inspection on a scale of 1-10, with 10 representing complete solubilization and 1 represents nullified solubilization.
Each of the obtained solution was then mixed with different adjuvants and applied at a rate equivalent to 500 g/ha for A. palmeri and 1000 g/ha for S. viridis. Herbicidal activity scores 3-4 days after application are presented Table 3 below.

[4] = tested on: Z. mays; assay: Greenhouse post-emergence assay (Example 3); assay type: in vivo, Zea mays; settings: 4% TWEEN 20, 0.05 M Tris buffer pH 8, 0.05% Break-Thru
Experimental: Plant seeds were sowed in 9 cm×9 cm×10 cm flowerpots. Timing of sowing (days before treatment application) for each plant is detailed in Table 7 below. 5 flowerpots of each species were used for each treatment. Seeds were sowed in wet clay soil and then covered with about 1 cm layer of dry clay soil.
Irrigation: Irrigation was carried out using VIBRONET-UD (NETAFIM) sprinklers hanging upside down one meter above the flowerpots. Water flow capacity-50 liters per hour. Irrigation was carried out three times a day for 10 minutes.
Treatments: Table 8 presents generally the protocols of the various treatments used in these assays.
(§4) 57.6 ml of 0.05 M Tris buffer pH=8 were added to 150 mg of Compound 1 and the mixture was stirred using a magnetic stirrer. 2.4 ml of TWEEN®20 were added and the mixture was stirred using a magnetic stirrer to obtain a 4% TWEEN®20-containing solution. 30 μl of Break-Thru were added to obtain a 0.05% Break-Thru-containing solution.
as §4, with “225” for “150”
Plants were sprayed using a DeVreis Generation 4 Research Track Sprayer with a TEE JET nozzle 80015EVS. Spraying volume was 200 L/ha using the following sprayer parameters: • Spray speed-2 KMH • Spray length-1.50 m • Spray pressure-42 PSI
Each plant was sprayed twice, yielding a total spraying volume of 400 L/ha. Nozzle was located 55 cm above pots ground level.
A. palmeri, S. viridis and S. nigrum plants were elevated with 8 cm tray, Z. mays plants were elevated with 3 cm tray in order to achieve a similar spraying height for all plant's foliage.
Plants were scored by visual inspection of symptoms, on a scale of 0-100, where 0 represents no herbicidal activity like control plants and 100 represents the maximal herbicidal activity (i.e., total death of the plant). Each pot was scored separately. DAT=days after treatment

[5] = 125 g/ha, 0.8% MIPA, 0.25% Genapol, 2% DASH EC
[6] = 125 g/ha, 0.8% MIPA, 2% DASH EC
[7] = 150 g/ha, 0.8% MIPA, 0.25% Genapol, 1% AGNIQUE, 0.05% Ca-LAS, 0.02% BSU
[8] = 150 g/ha, 0.8% MIPA, 0.25% Genapol, 2% HASTEN
[9] = 200 g/ha, 0.21% MIPA, 0.25% Genapol, 1% AGNIQUE, 0.05% Ca-LAS, 0.02% BSU
[10] = 200 g/ha, 0.8% MIPA, 0.25% Genapol, 1% AGNIQUE, 0.05% Ca-LAS, 0.02% BSU
[11] = 375 g/ha, 0.8% MIPA, 0.25% Genapol, 1% AGNIQUE, 0.05% Ca-LAS, 0.02% BSU
[12] = 375 g/ha, 0.8% MIPA, 2% TWEEN20, 1% AGNIQUE, 0.05% Ca-LAS, 0.02% BSU, 0.05% Break-Thru, 3-4 days after application, scale 0-100

`O=C(O)c1cc(O)c2c(c1)C(=O)c1cccc(O)c1C2=O` [Compound 1, Rhein] was tested, and the Herbicidal activity score [1, 5] was 23, the Herbicidal activity score [1, 6] was 43 and the Herbicidal activity score [1, 7] was 70. It also gave a Herbicidal activity score [1, 8] of 65, a Herbicidal activity score [1, 9] of 65 and a Herbicidal activity score [1, 10] of 88. For the same compound, the Herbicidal activity score [1, 11] was 78, the Herbicidal activity score [1, 12] was 75 and the Herbicidal activity score ([2]; 100 g/ha, 0.8% MIPA, 0.25% Genapol, 2% DASH EC) was 90. The Herbicidal activity score [2, 5] was 93, the Herbicidal activity score [2, 6] was 65 and the Herbicidal activity score [2, 7] was 85. For the same compound, the Herbicidal activity score [2, 8] was 85, the Herbicidal activity score [2, 9] was 93 and the Herbicidal activity score [2, 10] was 98. The Herbicidal activity score ([2]; 250 g/ha, 0.02% MIPA, 2% TWEEN20, 2% AGNIQUE, 0.1% Ca-LAS, 0.04% BSU, 0.05% Break-Thru) was 90, the Herbicidal activity score [2, 11] was 97 and the Herbicidal activity score [2, 12] was 100. For the same compound, the Herbicidal activity score ([3]; 500 g/ha, 0.5 mg/ml in 0.007% Ammonium hydroxide, 0.25% Adsee, 3-4 days after application) was 30, the Herbicidal activity score ([3]; 500 g/ha, 0.5 mg/ml in 0.007% Ammonium hydroxide, 0.25% Genapol X-080, 3-4 days after application) was 50 and the Herbicidal activity score ([3]; 500 g/ha, 0.5 mg/ml in 0.007% Ammonium hydroxide, 0.7% Sodium Lauryl Ether sulfate, 3-4 days after application) was 85. It also gave a Herbicidal activity score ([3]; 500 g/ha, 0.5 mg/ml in 0.007% Ammonium hydroxide, 1% AGNIQUE, 0.05% Ca-LAS, 0.02% BSU, 3-4 days after application) of 70, a Herbicidal activity score ([3]; 500 g/ha, 0.5 mg/ml in 0.007% Ammonium hydroxide, 2% Tween 20, 3-4 days after application, scale 0-100) of 60 and a Herbicidal activity score ([3]; 500 g/ha, 0.5 mg/ml in 0.019% MIPA, 0.25% Adsee, 3-4 days after application) of 80. It also gave a Herbicidal activity score ([3]; 500 g/ha, 0.5 mg/ml in 0.019% MIPA, 0.25% Genapol X-080, 3-4 days after application) of 70, a Herbicidal activity score ([3]; 500 g/ha, 0.5 mg/ml in 0.019% MIPA, 0.7% Sodium Lauryl Ether sulfate, 3-4 days after application) of 90 and a Herbicidal activity score ([3]; 500 g/ha, 0.5 mg/ml in 0.019% MIPA, 1% AGNIQUE, 0.05% Ca-LAS, 0.02% BSU, 3-4 days after application) of 80. For the same compound, the Herbicidal activity score ([3]; 500 g/ha, 0.5 mg/ml in 0.019% MIPA, 2% Tween 20, 3-4 days after application) was 95, the “Activity Score” value ([3]; 500 g/ha, 2% TWEEN 20, 5 mM MIPA, 1% AGNIQUE, 0.05% Ca-LAS, 0.02% BSU, 0.05% Break-Thru) was 95 and the “Activity Score” value ([3]; 1000 g/ha, 1% TWEEN 80, 0.05M Tris buffer pH 8, 0.05% Break-Thru, 3-4 days after application, scale 0-100) was 100. For the same compound, the “Activity Score” value ([3]; 1500 g/ha, 4% TWEEN 20, 0.05M Tris buffer pH 8, 0.05% Break-Thru) was 95, the “Activity Score” value ([3]; 2000 g/ha, 1% TWEEN 80, 0.05M Tris buffer pH 8, 0.05% Break-Thru) was 95 and the “Score by visual inspection of symptoms (average ± standard deviation, 5 pots)” value (“Score … (average ± standard deviation, 5 pots)” below) ([4]; 1000 g/ha (2.5 mg/ml, 400 L/ha), 1 DAT, scale 0-100) was 0 ± 0. The “Score … (average ± standard deviation, 5 pots)” value ([4]; 1000 g/ha (2.5 mg/ml, 400 L/ha), 3 DAT) was 30 ± 0, the “Score … (average ± standard deviation, 5 pots)” value ([4]; 1000 g/ha (2.5 mg/ml, 400 L/ha), 6 DAT) was 20 ± 0 and the “Score … (average ± standard deviation, 5 pots)” value ([4]; 1000 g/ha (2.5 mg/ml, 400 L/ha), 8 DAT) was 22 ± 4.5. For the same compound, the “Score … (average ± standard deviation, 5 pots)” value ([4]; 1000 g/ha (2.5 mg/ml, 400 L/ha), 15 DAT) was 10 ± 0, the “Score … (average ± standard deviation, 5 pots)” value ([4]; 1500 g/ha (3.75 mg/ml, 400 L/ha), 1 DAT) was 0 ± 0 and the “Score … (average ± standard deviation, 5 pots)” value ([4]; 1500 g/ha (3.75 mg/ml, 400 L/ha), 3 DAT) was 30 ± 0. For the same compound, the “Score … (average ± standard deviation, 5 pots)” value ([4]; 1500 g/ha (3.75 mg/ml, 400 L/ha), 6 DAT) was 30 ± 0, the “Score … (average ± standard deviation, 5 pots)” value ([4]; 1500 g/ha (3.75 mg/ml, 400 L/ha), 8 DAT) was 28 ± 4.5 and the “Score … (average ± standard deviation, 5 pots)” value ([4]; 1500 g/ha (3.75 mg/ml, 400 L/ha), 15 DAT) was 20 ± 0.
